In PubChem BioAssay AID651639 (Sanford-Burnham Center for Chemical Genomics, 2012):
Calls of active or inactive are those of the source. No rule for the calls is given here.

Molecular target: corticotropin-releasing factor-binding protein / CRF receptor 2 complex (human)
Test: blockers of CRF-binding protein–CRF-R2 complex – cell-based, uHTS hits, 384-well, dose response (AID 651639)
Conditions: CRF-BP/CRF-R2 complex antagonism, cell-based 384-well

Row | SMILES | IC50
1 | COc1ccc(/C=N/OCC(=O)N=Nc2c(O)[nH]c3ccc(Br)cc23)cc1 | > 20 µM (inactive)
2 | N#C/C(=C(/O)COc1ccc(Cl)cc1)c1nc2ccccc2s1 | > 20 µM (inactive)
3 | Cc1ccc(S(=O)(=O)N(CC(=O)N=Nc2c(O)[nH]c3ccccc23)c2ccc(C)c(C)c2)cc1 | > 20 µM (inactive)
4 | O=C(O)c1ccc(/C=N/Nc2cccc(C(F)(F)F)c2)cc1 | > 20 µM (inactive)
5 | Cc1ccc2nc(N3C(=O)C(O)=C(C(=O)c4ccc(C)o4)C3c3cccc(O)c3)sc2c1 (stereo not given) | 10.4 µM
6 | CN1c2ccccc2C(O)=C(C(=S)Nc2ccc(Cl)cc2)S1(=O)=O | > 20 µM (inactive)
7 | Cc1ccc(-n2[nH]c(C)c(/C=N/Nc3ccc([N+](=O)[O-])cc3[N+](=O)[O-])c2=O)cc1 | 15.5 µM
8 | Cc1cc(=O)oc2c1ccc1oc(/C(=N/O)c3ccccc3)c(C)c12 | > 20 µM (inactive)
9 | O=C1N=c2ccccc2=C1c1sc(=S)n(NC(=O)c2cccc(O)c2)c1O | > 20 µM (inactive)
10 | COc1ccc(C(C)=NNc2ccc([N+](=O)[O-])cc2S(=O)(=O)Nc2ccccc2C(=O)O)c(OC)c1 | 9.4 µM
11 | Cc1ccc2nc(N3C(=O)C(O)=C(C(=O)c4ccco4)C3c3cccc(O)c3)sc2c1 (stereo not given) | > 20 µM (inactive)
12 | O=[N+]([O-])c1cc(/C=N\O)ccc1Oc1ccc(F)cc1 | 17.5 µM
13 | N#C/C(=C(/O)Cc1cccc2ccccc12)c1nc2ccccc2s1 | 11.3 µM
14 | CN1C(=O)C(N=Nc2ccc([N+](=O)[O-])cc2)SC1=S (stereo not given) | 1 µM
15 | COC(=O)c1ccc(/C(O)=C(\C#N)c2nc3ccccc3s2)cc1 | > 20 µM (inactive)
